# From US7741344B2, “Process for preparing purified S-BEL and R-BEL and compositions thereof” (Washington University in St. Louis, priority 2002, dated 2010)
# How the values were obtained:
# PKCδ = test: AVP-induced PKC translocation in A-10 cells (Western), PKCδ; type: cell-based, rat; details: 5 μM pretreatment 15 min, 1 μM AVP; FIG. 8
# Protocol: (§1) Determination of PKC Translocation—Confluent A-10 cells in 10 cm dishes were washed twice with DMEM without serum, followed by incubation with either 5 μM (S)-BEL or ethanol vehicle in DMEM for 15 min at 37° C. This media was then removed and DMEM with or without 1 μM AVP was incubated with the cells for 5 min. After washing with ice-cold PBS, the cells were collected by scraping into 20 mM Tris-HCl, pH 7.4 containing 0.33 M sucrose, 5 mM EDTA, 0.5 mM 4(2-aminoethyl)benzenesulfonylfluoride, and 5 μg/ml leupeptin and were lysed by three cycles of flash freezing with liquid nitrogen and thawing. Each sample was then further homogenized utilizing a teflon homogenizer before isolating the low speed pellet (1,000×g), membrane (100,000×g pellet), and cytosol (100,000×g supernatant) fractions. The protein concentrations of the fractions were determined utilizing the bicinchoninic acid (BCA) assay (Pierce) with BSA as a standard. Samples were electrophoresed and subjected to ECL Western analysis utilizing rabbit polyclonal antibodies against PKCα and PKCε as described above for MAPK phosphorylation. For blots incubated with mouse monoclonal antibodies against PKCδ and PKCι., an anti-mouse IgG (Fab specific)-peroxidase conjugate was utilized in place of the protein A-peroxidase conjugate. […]
# A-10 smooth muscle cells = test: AVP-induced [3H]-arachidonic acid liberation from A-10 cells; type: cell-based, rat; details: for restoration of arachidonic acid release in (S)-BEL treated A-10 cells: 5 μM (S)-BEL pretreatment, then 1 μM AVP with PMA (1 μM) or DOG (10 μM), FIG. 7
# Protocol: Quantification of [^3H]-Arachidonic Acid Liberation from A-10 Phospholipids—Rat aortic smooth muscle A-10 cells, cultured in 60 mm dishes (2.5×10^5 cells/dish), were radiolabeled with 0.5 μCi [^3H]-arachidonic acid per dish as previously described (29). Cells were washed once with DMEM containing 0.25% fatty acid free bovine serum albumin followed by two washes with DMEM alone. Cells were then incubated with the indicated concentrations of (R)-, (S)-, rac-BEL, or ethanol vehicle (0.1% final concentration) in DMEM for 20 min. This media was removed and the cells were then incubated with DMEM containing 10% heat-inactivated fetal bovine serum in the absence or presence of 1 μM AVP. In some tests, PMA (1 μM) or DOG (10 μM) was added to the medium containing AVP. After 5 mm, 1 ml of this medium was removed, lipids were extracted into 2 ml of chloroform/methanol/acetic acid (25:24:1 v/v) (38), and the remaining cells were scraped into 1 ml of deionized water prior to lipid extraction as described above. The chloroform layer was evaporated under nitrogen and the extracted lipids were separated by thin layer chromatography (petroleum ether/ethyl ether/glacial acetic acid 70:30:1). Regions containing fatty acids and phospholipids were scraped into vials and radioactivity was quantified by liquid scintillation spectrometry.
# A-10 cells (2.5×10^5 cells/dish) were radiolabeled with [^3H]-arachidonic acid (0.5 μCi/dish) for 20 hrs. After washing to remove unincorporated [^3H]-arachidonic acid, cells were then incubated with either 1 μM or 5 μM (R)-BEL, (S)-BEL, rac-BEL, or ethanol vehicle (0.1%) in DMEM for 20 mm. This media was removed and the cells were then incubated with 3 ml of DMEM containing 10% heat-inactivated fetal bovine serum with or without 1 μM AVP. After 5 min, 1 ml of this medium was removed and lipids were extracted into 2 ml of chloroform/methanol/acetic acid (25:24:1). The remaining cells were scraped into 1 ml of deionized water and total lipids were extracted as described above. The chloroform layer was evaporated under nitrogen and the extracted lipids were separated by TLC. Regions containing fatty acids and phospholipids were scraped into vials and radioactivity was quantified by liquid scintillation spectrometry. Results are representative of four separate tests.
# A-10 cells were radiolabeled with [^3H]-arachidonic acid, washed, and pre-incubated with 5 μM (S)-BEL or ethanol vehicle alone for 15 min as described in FIG. 5. DMEM media containing 10% heat-inactivated fetal bovine serum with or without 1 μM AVP was then added to the cells. After 5 min at 37° C., [^3H]-arachidonic acid released into the media and remaining within the cells (free and incorporated into phospholipids) was extracted into chloroform, separated by TLC, and quantified by liquid scintillation spectrometry as described in “Experimental Procedures”. Results are representative of three separate tests.
# α-chymotrypsin = biological target: T1, α-chymotrypsin (Bos taurus, UniProt P00766); test: Inhibition of α-chymotrypsin by BEL; type: biochemical; details: 2 μM chymotrypsin, up to 5-fold molar excess of inhibitor, 5 min 22° C., then 1000-fold dilution with 100 mM hydrazine; FIG. 3
# T1 construct: purchased Sigma
# Protocol: Inhibition of α-Chymotrypsin by BEL—The kinetics of α-chymotrrpsin inactivation by (R)-, (S)-, and rac-BEL were performed similar to methods previously described (36). The concentration of α-chymotrypsin (MW=25,000) was determined using an A^1%=20 (1 cm pathlength) at 280 nm (37). Briefly, one milliliter of α-chymotrypsin (2 μM) was incubated with up to a 5-fold molar excess of (R)-,(S)-, or rac-BEL dissolved in acetonitrile or vehicle alone for 5 mm at 22° C. in 0.1 M sodium phosphate buffer, pH 7.2. […] Following incubation at 22° C. for 1 hr, chymotrypsin activity in each diluted sample was measured utilizing a SPECTRAmax GeminiXS microplate spectrofluorometer with N-succinyl-Ala-Ala-Pro-Phe-7-amidomethylcoumarin (50 μM) as substrate for 1 mm at 25° C. Excitation and emission wavelengths were 380 nm and 460 nm, respectively.
# Chymotrypsin (2 μM) in 0.1 M sodium phosphate buffer, pH 7.2 was incubated with the indicated concentrations of racemic, (R)-, or (S)-BEL for 5 mm. This solution was then diluted 1000-fold in 0.1 M sodium phosphate buffer, pH 7.2 containing 100 mM hydrazine and incubated for 1 hr at 22° C. Chymotrypsin proteolytic activity was measured spectrofluorometrically using N-succinyl-Ala-Ala-Pro-Phe-7-amido-4-methylcoumarin (50 μM) as substrate.
# [1] = test system: MAPK (ERK2) phosphorylation; test: AVP-induced MAPK phosphorylation in A-10 cells (Western); type: cell-based, rat; details: 5 μM, 15 min, 1 μM AVP; FIG. 9
# [2] = test system: purified recombinant iPLA2β; test: Assay of iPLA2β inhibition by BEL (radiolabeled phospholipid substrate); type: biochemical
# Protocol: Recombinant iPLA2 Enzymes—Recombinant iPLA2β was expressed and purified from Sf9 cells as previously described (35).
# Assay of iPLA2β and iPLA2γ Inhibition by BEL—Purified recombinant iPLA2β or Sf9 cell membranes containing recombinant iPLA2γ were incubated with (R) BEL, (S) BEL, racemic BEL, or ethanol vehicle for 3 mm at 22° C. in the presence of 100 mM Tris-HCl (pH 7.0) and 4 mM EGTA (for iPLA2β) or 100 mM Tris-acetate (pH 8.0) and 4 mM EGTA (for iPLA2γ). The concentration of BEL used for each test ranged from 0 to 16 μM. L-α-1-palmitoyl-2-[1^14C]-arachidonyl-phosphatidylcholine (5 μM final concentration) or L-α-1-palmitoyl-2-[1-^14C]-oleoyl-phosphatidylcholine (5 μM final concentration) in ethanol was then added to each sample and incubated at 37° C. for 2 min. Reactions were terminated by extraction of radiolabeled products into butanol, and reactants and products were separated by thin layer chromatography using Whatman LK6D 60 Å Silica Gel plates with petroleum ether/ethyl ether/acetic acid (70:30:1) as the mobile phase. Regions corresponding to the migration of a fatty acid standard visualized by iodine staining were scraped into vials and radioactivity was quantified by scintillation spectrometry.
# Panel A—Purified recombinant iPLA2β (1 μg/ml) in 100 mM Tris-HCl, pH 7.3 containing 1 mM EGTA was preincubated at 22° C. for 3 mm in the presence of the indicated concentrations of (R)-, (S)-, or rac-BEL or ethanol vehicle alone (1% final concentration). Radiolabeled substrate (L-α-1-palmitoyl-2-[1-^14C]-arachidonyl-phosphatidylcholine, 5 μM final concentration) was then added to each reaction and incubated at 37° C. for 2 min. Reactions were terminated by extraction of remaining substrate and products into butanol, separation by TLC, and quantification of released radiolabeled fatty acid by scintillation spectrometry as described in Experimental Procedures.
# PKCε = test: AVP-induced PKC translocation in A-10 cells (Western), PKCε; type: cell-based, rat; details: 5 μM pretreatment 15 min, 1 μM AVP; FIG. 8
# Protocol: as §1
"IC50 (A-10 smooth muscle cells; 1 μM AVP, read-out: IC50, AVP-induced liberation of AA from A-10 cells) [nM]",inhibition of chymotrypsin (α-chymotrypsin),Compound,AVP-induced translocation of PKCδ to the membrane fraction (PKCδ),"inhibition of AVP-induced AA release (A-10 smooth muscle cells; 1 μM inhibitor, 20 min pretreatment, 1 μM AVP, FIG. 5) [%]","AVP-induced AA release (in words) (A-10 smooth muscle cells; 5 μM inhibitor, 1 μM AVP, FIG. 5)",AVP-induced phosphorylation of ERK2 [1],selectivity for inhibition of iPLA2β [2] [fold],"inhibition of iPLA2β, fold more potent than (R)-BEL ([2]; 3 min preincubation, FIG. 4A) [fold]",selectivity for iPLA2β in comparison to iPLA2γ ([2]; in words),AVP-induced translocation of PKCε to the membrane fraction (PKCε),restoration of arachidonic acid release in (S)-BEL treated A-10 cells (A-10 smooth muscle cells)
~1000,considerably less potent,"O=C1O/C(=C/Br)CC[C@H]1c1cccc2ccccc12 [(S)-BEL, (S)(E)-6-(bromomethylene)-3-(1-naphthalenyl)-2H-tetrahydropyran-2-one]",does not effect,50,completely attenuated,not effected,10,10,approximately an order of magnitude more selective,does not effect,–
–,–,"CCCCCCCCCCCCCC(=O)O[C@@H]1[C@@H](C)[C@@]2(O)[C@@H](C=C(CO)C[C@]3(O)C(=O)C(C)=C[C@@H]23)[C@@H]2C(C)(C)[C@]12OC(C)=O [PMA, Phorbol-12-myristate-13-acetate]",–,–,–,–,–,–,–,–,Neither PMA or DOG could restore
–,–,"CCCCCCCC(=O)OC[C@H](CO)OC(=O)CCCCCCC [DOG, 1,2-Dioctanoyl-sn-glycerol]",–,–,–,–,–,–,–,–,Neither PMA or DOG could restore
